Experimental data taken from publication PMC4506958 (FEBS Open Bio, 2015).
pKd: −log10 of the molar value.

Experiments:
[1] = target: T1, Keap1 (Kelch-like ECH-associated protein 1) (Homo sapiens, UniProt Q14145); assay: X-ray crystal structures at […] Å (soaking form 3vnh, cocrystallization form 3vng); SPR; AlphaScreen competition with Nrf2 peptide; format: binding
T1 construct: Kelch domain (residues 321–609)

[2] = target: Nrf2 ETGE motif (Homo sapiens) (UniProt Q16236); assay: ITC; conditions: cited from earlier work

Keap1 Kelch domain, sequence (Q14145 321-609): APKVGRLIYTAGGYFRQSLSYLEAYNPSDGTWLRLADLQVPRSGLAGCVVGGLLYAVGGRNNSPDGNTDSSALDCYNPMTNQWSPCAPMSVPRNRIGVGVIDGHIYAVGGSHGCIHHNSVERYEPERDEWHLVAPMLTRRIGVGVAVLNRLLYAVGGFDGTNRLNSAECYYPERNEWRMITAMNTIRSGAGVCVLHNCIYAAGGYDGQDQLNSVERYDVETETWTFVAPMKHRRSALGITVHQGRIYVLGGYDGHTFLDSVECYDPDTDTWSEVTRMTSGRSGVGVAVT
T1 sequence (Q14145 321-609): as above

Row | Compound | pKd [1] | pKd [2]
1 | O=C(O)COc1cccc(CNC(=O)Nc2nnc(-c3ccco3)o2)c1 [Ligand1, 2-(3-((3-(5-(furan-2-yl)-1,3,4-oxadiazol-2-yl)ureido)methyl)phenoxy)acetic acid] | < 4.30 | –
2 | Keap1 Kelch domain (from UniProt Q14145) | – | 8.10
